Results from patent US7528175B2, “Method of treating airway diseases with beta-adrenergic inverse agonists” (Inverseon, Inc., priority 2005, dated 2009).
“Also recorded” adds a separate entry of the source. Where two headings read alike, the source gives them in different places.

Columns and labels:
[1] = test system: patients with CHF; conditions: cited from earlier work
[2] = test system: asthmatic mice; experiment: Airway resistance (Raw) response to methacholine in murine model of asthma (forced oscillation); assay type: in vivo, Balb/cJ mice; conditions: for airway hyperresponsiveness (Raw): chronic treatment 7 days, 20 mg/kg (metoprolol 3× daily s.c.; timolol in chow)
Experimental: Balb/cJ mice aged 6 weeks (Jackson Animal Laboratory, Bar Harbor, Me.) were housed under specific pathogen-free conditions and fed a chicken ovalbumin-free diet. The Animal Research Ethics Boards of both the University of Houston and the Baylor College of Medicine approved all experiments reported here. […] Mice were sensitized with subcutaneous injection of 25 μg of ovalbumin adsorbed to aluminum hydroxide on protocol days 2, 9, and 16. Subsequently, mice were given 50 μL of saline solution containing 25 μg of ovalbumin intranasally, on a daily basis, from protocol days 23 through 27. A group of ovalbumin-sensitized saline-challenged mice serves as controls for systemic sensitization and respiratory challenges with ovalbumin. Prior to intranasal administrations, mice were sedated with halothane vapor.
To examine the effects of duration of β-adrenergic ligand therapy on the phenotype of the murine model of asthma, the experimental drugs were administered either acutely or chronically to different groups of asthmatic mice.
Asthmatic mice on acute therapy were given a single intravenous bolus infusion of either β-adrenergic drug or normal saline on protocol day 28, 15 minutes before airway responsiveness to methacholine was determined. […] […] […] These concentrations were chosen based on those producing therapeutic effects in mice in previously published studies. The non-asthmatic mice were fed normal chow.
On protocol day 28, mice were anesthetized, tracheotomized, and connected to a computer-controlled small animal ventilator (Flexivent, Scientific Respiratory Equipment, Inc., Montreal, Canada). Airway resistance (Raw) was measured using the forced oscillation technique. The cellular composition of bronchoalveolar lavage fluid (BALF) was also determined.
To induce airway constriction, a solution containing 150 μg/mL of acetyl-α-methylcholine chloride (methacholine) (Sigma Chemical, St. Louis, Mo.) was infused intravenously at constant rates using a syringe infusion pump (Raze Scientific Instruments, Stanford, Conn.). […] Each methacholine dose was administered for 3 to 5 minutes, during which data were sampled at 1-minute intervals and then averaged.
The complex input impedance of the respiratory system was computed and the value of the real part of respiratory system impedance at 19.75 Hz was taken to reflect the magnitude of airway resistance (Raw). To examine the degree of airway responsiveness of each animal, the values for Raw as a function of methacholine doses were plotted. The largest value for Raw achieved in response to methacholine stimulation was referred to as Rawpeak. For mice that achieved a plateau in the methacholine dose-Raw response curve, the ED50 was calculated by linear interpolation using the GraphPad Prism4 (GraphPad Software, Inc.). […] The Bonferroni test was used to examine the statistical differences between experimental groups. The effects of acute drug treatments on baseline respiratory system mechanics were assessed using a two-tailed paired t-test. A value of P<0.05 was considered significant.
For these experiments, salbutamol was used for chronic administration at 0.5 mg/kg/day with a minipump and for acute administration at 0.15 mg/kg by i.v. bolus 15 minutes prior to challenge. Alprenolol was used at a high dose of 7200 ppm in chow or at a low dose of 720 ppm in chow. Carvedilol was used at a high dose of 2400 ppm in chow or at a low dose of 720 ppm in chow.

[3] = cited from earlier work
[4] = test system: antigen-induced bronchoconstriction; conditions: acute administration; cited from earlier work
[5] = test system: β-adrenergic receptor; conditions: U.S. Pat. No. 6,284,800; cited from earlier work
[6] = test system: asthmatic mice; experiment: BALF cell number and type (Example 11); assay type: in vivo; conditions: vs nontreated asthmatic mice
Excerpt: The same mice as described in Example 1 underwent bronchoalveolar lavage (BAL) to determine the total number and type of immune system cells in the lung. BAL Fluid (BALF) was irrigated and collected from the lungs of mice as previously described (Evans K L, Bond R A, Corry […]. Frequency dependence of respiratory system mechanics during induced constriction in a murine model of asthma. J Appl Physiol. 2003 January;94(1):245-52). […] The number of neutrophils was increased in nontreated asthmatic mice compared to mice that served as controls for chronic beta-blocker treatments. In comparison to their notable effects on airway responsiveness, the β-AR ligands tested had very little effect on BALF cellularity. […] FIG. 12 has 3 panels of cell number and type of cells from the bronchoalveolar lavage fluid of asthmatic mice treated acutely or chronically with beta adrenergic ligands. Cells were identified as eosinophils (black bars), macrophages (hatched bars), neutrophils (grey bars), and lymphocytes (white bars) by standard morphologic criteria. At least 200 cells were counted per cytospin preparation, and the absolute number of each cell type was calculated based on the volume of fluid recovered from the lavage. […] Data are expressed as mean ±SEM and are representative of 6-25 animals per group. #P<0.05 compared to NTX, *P<0.05 compared to control (ANOVA).

[7] = test system: β2-adrenergic receptor; assay type: binding, mice; conditions: 2 days of administration
Experimental: (§1) β2-adrenergic receptor numbers were measured in asthmatic mice as follows. […] Mice were sacrificed and lung membranes were isolated as follows. Frozen lung tissue was homogenized in an ice-cold buffer containing 0.32 M sucrose and 25 mM Tris (pH 7.4) using a polytron (Pro 200, Pro Scientific, Inc.). The homogenate was centrifuged at 1000×g for 10 min at 4° C. The resulting supernatant was centrifuged at 40,000×g for 20 min at 4° C. The pellet was suspended in an ice-cold 25 mM Tris-HCl buffer (pH 7.4) and centrifuged at 40,000×g for 20 min at 4° C. The final pellet was suspended in 200 μL of 25 mM Tris-HCl (pH 7.4); membrane protein concentration was determined by BCA protein assay kit. […] The incubation was done at 37° C. for 2 h and terminated by rapid vacuum filtration through glass fiber filters. The filters were washed three times with 250 μL of cold wash buffer (25 mM Tris-HCl, pH 7.4) and the radioactivity determined in a counter. […] Receptor densities are expressed as femtomoles of sites per milligram of protein. Bmax is determined by nonlinear regression of the saturation binding curves.

[8] = biological target: β2-adrenergic receptor (Mus musculus, UniProt P18762); assay type: binding, mice; conditions: for Bmax: 15 Minutes drug treatment; for Bmax / βmax: lung membranes of asthmatic mice, mean±SEM; for βmax: 28 Days drug treatment; for level of the β2-adrenergic receptor: chronic treatment, asthmatic mice
Chain of β2-adrenergic receptor (Mus musculus, UniProt P18762) (P18762 whole entry): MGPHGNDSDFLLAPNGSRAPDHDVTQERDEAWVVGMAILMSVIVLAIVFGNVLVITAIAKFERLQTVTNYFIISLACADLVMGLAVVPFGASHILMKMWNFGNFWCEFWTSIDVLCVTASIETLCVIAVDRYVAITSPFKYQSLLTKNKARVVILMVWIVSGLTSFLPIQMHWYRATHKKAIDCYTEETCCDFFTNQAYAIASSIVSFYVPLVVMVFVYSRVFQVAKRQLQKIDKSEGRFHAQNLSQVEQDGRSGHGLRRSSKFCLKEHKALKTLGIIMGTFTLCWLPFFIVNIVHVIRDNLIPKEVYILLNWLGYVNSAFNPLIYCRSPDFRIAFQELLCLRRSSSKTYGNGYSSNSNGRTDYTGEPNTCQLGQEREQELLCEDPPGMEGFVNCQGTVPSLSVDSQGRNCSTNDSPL
Experimental: as §1

[9] = test system: tracheas from asthmatic mice; conditions: chronic treatment of asthmatic mice, excised tracheas; cited from earlier work
[10] = test system: asthmatic mice; experiment: Total number of immune cells in BALF (Example 12); assay type: in vivo; conditions: chronic treatment; compared to NS/NC mice
Experimental: Bronchial alveolar lavage fluid was collected from treated animals and total immune cell number was determined and the total number of eosinophils was also determined. Additionally, the interleukin 10 (IL-10) levels were determined in the mice.

[11] = chronic use; cited from earlier work
[12] = asthmatic mice, acute: single intravenous bolus 15 minutes before methacholine
[13] = asthmatic mice, chronic administration for 28 days

Compound: COCCc1ccc(OCC(O)CNC(C)C)cc1 (stereo not shown) [metoprolol]
- clinical outcome in congestive heart failure [1]: significant mortality reduction
- airway hyperresponsiveness (Raw) [2]: effective in reducing airway hyperresponsiveness

Compound: CC(C)(C)NC[C@H](O)COc1nsnc1N1CCOCC1 [timolol]
- airway hyperresponsiveness (Raw) [2]: effective in reducing airway hyperresponsiveness

Compound: C[C@@H]1C[C@H]2[C@@H]3C[C@H](F)C4=CC(=O)C=C[C@]4(C)[C@@]3(F)[C@@H](O)C[C@]2(C)[C@@]1(O)C(=O)SCF [fluticasone]
- first-pass hepatic metabolism of systemically absorbed drug ([3]; in vivo): almost complete

Compound: CC(C)NC[C@@H](O)COc1cccc2ccccc12 [D-propranolol]
- antigen-induced bronchoconstriction and airway hyperresponsiveness [4]: beneficial in inhibiting antigen-induced bronchoconstriction and reducing airway hyperresponsiveness
- activity with respect to β-adrenergic receptors [5]: inactive

Compound: CC(C)NC[C@H](O)COc1cccc2ccccc12 [L-form of propranolol, propranolol]
- specific lung resistance [4]: increased specific lung resistance

Compound: C=CCc1ccccc1OCC(O)CNC(C)C (stereo not shown) [alprenolol]
- BALF cellularity ([6]; acute treatment (15 minutes)): significant increase in the number of macrophages
- BALF cellularity ([6]; chronic treatment (28 days)): no changes in BALF cellularity were observed
- Increased β2AR density [7]: no
- Bmax [8]: 299.5 ± 12.19 femtomoles of sites per milligram of protein
- βmax [8]: 179.2 ± 53.05 femtomoles of sites per milligram of protein
- Increased β2AR density ([8]; 15 minutes of administration): yes
- Increased β2AR density ([8]; 28 days of administration): no
- level of the β2-adrenergic receptor [8]: slight decrease
- Decreased Raw ([2]; 15 minutes of administration): yes
- Decreased Raw ([2]; 2 days of administration): no
- Decreased Raw ([2]; 28 days of administration): no
- airway responsiveness to methacholine provocation (Raw) [2, 12]: airway responsiveness was diminished
- airway responsiveness to methacholine provocation (Raw) [2, 13]: does not reduce airway hyperresponsiveness; also recorded: without any activity; also recorded: provides no benefit upon chronic administration
- methacholine doses at which Raw was significantly decreased vs non-treated (P<0.05) ([2]; asthmatic mice, single intravenous bolus): ≥ 408 µg/kg/min
- effectiveness on tracheal contraction in response to methacholine (rank) [9]: The most effective compound

Compound: Cc1ccc(OCC(O)C(C)NC(C)C)c2c1CCC2 (stereo not shown) [ICI-118,551]
- effectiveness on tracheal contraction in response to methacholine (rank) [9]: then ICI-118,551

Compound: CC(C)(C)NCC(O)c1ccc(O)c(CO)c1 (stereo not shown) [salbutamol]
- BALF cellularity ([6]; acute treatment (15 minutes)): did not alter the cellular composition of BALF
- BALF cellularity ([6]; chronic treatment (28 days)): significant increase in the number of eosinophils
- Increased β2AR density [7]: no
- Bmax [8]: 256.5 ± 29.24 femtomoles of sites per milligram of protein
- βmax [8]: 97.0 ± 23.02 femtomoles of sites per milligram of protein
- Increased β2AR density ([8]; 15 minutes of administration): yes
- Increased β2AR density ([8]; 28 days of administration): no
- level of the β2-adrenergic receptor [8]: slight decrease
- bioavailability of inhaled drug ([3]; 10 patients with cystic fibrosis vs healthy adults): greater than that in healthy adults
- Decreased Raw ([2]; 15 minutes of administration): yes
- Decreased Raw ([2]; 2 days of administration): no
- Decreased Raw ([2]; 28 days of administration): no
- airway responsiveness to methacholine provocation (Raw) [2, 12]: reduced the level of airway responsiveness to methacholine provocation and the level of airway resistance
- airway responsiveness to methacholine provocation (Raw) [2, 13]: no protection was observed
- total number of immune cells in BALF [10]: statistically significant at P<0.05 total higher numbers of immune cells

Compound: CC(C)(C)NCC(O)c1cc(O)cc(O)c1 (stereo not shown) [terbutaline]
- increase in bioavailability from oral component ([3]; from an MDI): 6.7%
- absorption through the lung ([3]; healthy smokers vs healthy nonsmokers): absorbed through the lung more rapidly in healthy smokers than in healthy nonsmokers

Compound: CCCC1O[C@@H]2C[C@H]3[C@@H]4CCC5=CC(=O)C=C[C@]5(C)[C@H]4[C@@H](O)C[C@]3(C)[C@]2(C(=O)CO)O1 (stereo partly shown) [budesonide]
- plasma clearance relative to average clearance of prednisolone ([3]; in vivo): about 10 fold
- systemic availability of the swallowed fraction ([3]; in vivo): 10.7±4.3%
- plasma clearance of the 2 enantiomers, children with asthma vs healthy adults ([3]; per kilogram of bodyweight, 6 children, 11 adults): about 50%

Compound: CC(C)(Cc1c[nH]c2ccccc12)NCC(O)COc1ccccc1C#N (stereo not shown) [Bucindolol, bucindolol]
- clinical outcome in congestive heart failure [1]: failed to demonstrate any benefit over placebo

Compound: OCc1cc(C(O)CNCCCCCCOCCCCc2ccccc2)ccc1O (stereo not shown) [salmeterol]
- trial outcome [11]: stopped due to increased death rates
- time for majority of a dose to be eliminated in the feces ([3]; in vivo): ≤ 72 h
